Laboratory results taken from PubChem BioAssay AID743160 (Sanford-Burnham Center for Chemical Genomics, 2013).
Active and inactive are the calls of the source. The rule behind the calls is not given here.

System: H9c2 cells, DAPI nuclear count (cytotoxicity), overnight
Test: DAPI-stained nuclei loss in H9c2 cells – cell-based, DAPI fluorescence, cytotoxicity control for triacylglycerol accumulation inhibitor project, SAR follow-up (AID 743160)

SMILES	IC50
COc1ccc(CCN2Cc3cccc(C(=O)Nc4cccc(-c5nc6ccccc6[nH]5)c4)c3C2=O)cc1OC	> 50 µM (inactive)
COCCN1Cc2cccc(C(=O)Nc3cccc(-c4nc5ccc(F)cc5[nH]4)c3)c2C1=O	> 50 µM (inactive)
CCOC(=O)c1cccc(NC(=O)c2cccc3c2C(=O)N(CCOC)C3)c1	> 50 µM (inactive)
Cc1cccc2c(C(=O)N3CCN(c4ccccc4)CC3)cc(-c3ccncc3)nc12	> 50 µM (inactive)
CCn1c(SCC(=O)Nc2nc(-c3ccc(C)cc3)cs2)nnc1-c1ccccc1O	8.1 µM (inactive)
COc1cc2c(cc1OC)C(C)N(C(=O)c1cc3c(C)cc(C)cc3[nH]1)CC2 (stereo unspecified)	> 50 µM (inactive)
COCCN1Cc2cccc(C(=O)Nc3cccnc3)c2C1=O	> 50 µM (inactive)
COc1ccccc1CCN1Cc2cccc(C(=O)Nc3cccc(-c4nc5ccccc5[nH]4)c3)c2C1=O	> 50 µM (inactive)
CCN(CC)S(=O)(=O)c1ccc(N2CCOCC2)c(NC(=O)c2[nH]c(C)c(C(C)=O)c2C)c1	> 50 µM (inactive)
O=C(Nc1cccc2ncccc12)c1ccc(Cl)cc1	> 50 µM (inactive)
COCCn1cnc2cccc(C(=O)Nc3cccc(-c4nc5ccccc5[nH]4)c3)c2c1=O	> 50 µM (inactive)
CCC(C)(C)NC(=O)C(c1ccc(OC)cc1)N(Cc1cccs1)C(=O)CCC(=O)Nc1cc(C)on1 (stereo unspecified)	> 50 µM (inactive)
COCCN1Cc2cccc(C(=O)NCc3cccc(N(C)C)c3)c2C1=O	> 50 µM (inactive)
Cc1ccccc1NC(=O)CSc1nc2ccc(Nc3nc(N4CCOCC4)nc(N4CCOCC4)n3)cc2s1	40 µM (inactive)
CCCC(=O)Nc1nc2ccc(NC(=O)c3ccccc3F)cc2s1	> 50 µM (inactive)
CN(C)CCCn1c(SCC(=O)Nc2nc(-c3cccc(Br)c3)cs2)nc2ccccc2c1=O	27.1 µM (inactive)
COCCN1Cc2cccc(C(=O)Nc3cccc(-c4nc5ccc(Cl)cc5[nH]4)c3)c2C1=O	> 50 µM (inactive)
O=C(Nc1cccc(-c2nc3ccccc3[nH]2)c1)c1cccc2c1C(=O)N(CCOc1ccccc1)C2	> 50 µM (inactive)
CCOCCN1Cc2cccc(C(=O)Nc3cccc(-c4nc5ccccc5[nH]4)c3)c2C1=O	> 50 µM (inactive)
COCCN1Cc2cccc(C(=O)Nc3cccc(C(=O)Nc4ccccc4)c3)c2C1=O	> 50 µM (inactive)
Cc1ccc(Nc2nc(OC(C(F)(F)F)C(F)(F)F)nc(N3CCOCC3)n2)cc1	> 50 µM (inactive)
CSCCCN1Cc2cccc(C(=O)Nc3cccc(-c4nc5ccccc5[nH]4)c3)c2C1=O	> 50 µM (inactive)
COc1cccc(-c2cc(C(=O)Nc3ccc(N(C)C(C)=O)cc3)c3cc(Br)ccc3n2)c1	> 50 µM (inactive)
O=C(CCC(=O)N1CCOc2ccc(Cl)cc21)NCCCN1CCC(Cc2ccccc2)CC1	13.5 µM (inactive)
O=C(Nc1cccc(-c2nc3ccccc3[nH]2)c1)c1cccc2c1C(=O)N(CC1CC1)C2	> 50 µM (inactive)
Cc1ccc(-c2csc(NC(=O)CSc3nc4ccccc4c(=O)n3CCCN(C)C)n2)cc1	> 50 µM (inactive)

SMILES	IC50
Cc1cc(C)c2nc(-c3ccncc3)cc(C(=O)N3CCN(Cc4ccccc4Cl)CC3)c2c1	23.6 µM (inactive)
Cc1ccc(-c2nc(NC(=O)c3cc(C(C)(C)C)nn3C)sc2C)cc1Cl	> 50 µM (inactive)
O=C1COc2ccc(C(=O)CSc3nc4ccccc4c(=O)n3-c3ccc(Cl)c(Cl)c3)cc2N1	7.69 µM (inactive)
CCCCN1Cc2cccc(C(=O)Nc3cccc(-c4nc5ccccc5[nH]4)c3)c2C1=O	> 50 µM (inactive)
CCOC(=O)c1cc(-c2ccccc2)sc1NC(=O)C(C)N1C(=O)NC(C)(c2ccc(Cl)cc2)C1=O (stereo unspecified)	> 50 µM (inactive)
COCCN1Cc2cccc(C(=O)Nc3cccc(-c4nc5ccc(C)cc5[nH]4)c3)c2C1=O	> 50 µM (inactive)
O=[N+]([O-])c1ccc(Nc2nc(NC3CCCCC3)nc(N3CCCC3)n2)cc1	11 µM (inactive)
COCCN1Cc2cccc(C(=O)Nc3nc4ccccc4n3C)c2C1=O	> 50 µM (inactive)
CCC(C)(C)NC(=O)C(c1ccc(C)cc1)N(Cc1ccco1)C(=O)CCC(=O)Nc1nccs1 (stereo unspecified)	> 50 µM (inactive)
CCOc1ccccc1NC(=O)c1cccc(NC(=O)c2ccco2)c1	23.2 µM (inactive)
Cc1ccccc1NC(=O)CSc1nc(Nc2ccccc2)nc(N2CCOCC2)n1	> 50 µM (inactive)
COCCN1Cc2cccc(C(=O)Nc3nc4ccccc4[nH]3)c2C1=O	> 50 µM (inactive)
O=C(Nc1cccc(-c2nc3ccccc3[nH]2)c1)c1cccc2c1C(=O)N(CCc1ccccc1)C2	> 50 µM (inactive)
CCCC(=O)Nc1nc2ccc(NC(=O)c3c(F)c(F)c(OC)c(F)c3F)cc2s1	> 50 µM (inactive)
CCOc1ccc(NC(=O)CN(C)C(=O)c2cc(-c3ccc(OC)cc3)nc3ccccc23)cc1OCC	> 50 µM (inactive)
COCCCN1Cc2cccc(C(=O)Nc3cccc(-c4nc5ccccc5[nH]4)c3)c2C1=O	> 50 µM (inactive)
O=C(Nc1cccc(-c2nc3ccccc3[nH]2)c1)c1cccc2c1C(=O)N(CCN1CCOCC1)C2	> 50 µM (inactive)
O=C(CSc1nc2ccc(Nc3nc(N4CCOCC4)nc(N4CCOCC4)n3)cc2s1)NCc1ccco1	> 50 µM (inactive)
COCCN1Cc2cccc(C(=O)Nc3cccc(C(=O)Nc4ccccc4OC)c3)c2C1=O	> 50 µM (inactive)
Cc1ccccc1OCCNc1cc(N2CC(C)NC(C)C2)ccc1[N+](=O)[O-] (stereo unspecified)	> 50 µM (inactive)
COCCN1Cc2cccc(C(=O)Nc3cccc(-c4nc5ccccc5[nH]4)c3)c2C1=O	> 50 µM (inactive)
CCCCSc1nc2ccc(Nc3nc(N4CCOCC4)nc(N4CCOCC4)n3)cc2s1	> 50 µM (inactive)
COc1cc(NC(=O)c2cc([N+](=O)[O-])ccc2NC(=O)CN2CCN(c3ccccn3)CC2)cc(OC)c1	> 50 µM (inactive)
COCCN1Cc2cccc(C(=O)Nc3cccc(-c4nc5ccc(C(F)(F)F)cc5[nH]4)c3)c2C1=O	> 50 µM (inactive)
O=C(CSc1nc2ccc(Nc3nc(N4CCOCC4)nc(N4CCOCC4)n3)cc2s1)Nc1ccccc1Cl	27.8 µM (inactive)
